Test results published in patent publication US7887599B2, “Methods of use of biodegradable injectable implants” (priority 2001, dated 2011).

Assays:
[1] = cited from earlier work
human patients [2] = conditions: in comparison to the retinoids (Personelli); cited from earlier work
guinea pigs [3] = conditions: guinea pig, in vivo
Text: (§1) In a preliminary test, 39 guinea pigs were used to define product concentration for intradermal injections. All were adult animals and sex was not considered. They were divided in 4 different cages, each containing 9, 10, 10 and 10 animals. […] Evaluations were taken after the 3rd and 7th day.

human patients [4] = experiment: Intradermal application of glycolic acid in human patients; format: in vivo; conditions: 35 human patients, intradermal application of 5 ml at 0.01%
guinea pigs [5] = experiment: Preliminary test of glycolic acid concentration for intradermal injections in guinea pigs
Text: as §1

skin [6] = conditions: documented; cited from earlier work
skin [7] = experiment: Injection of GA alone, re-hydrating effect on the skin; format: in vivo, human

## OC[C@@H](O)[C@@H](O)[C@H](O)[C@H](O)CO [D-mannitol]
[1]
  solubility in water: readily soluble

## O=C(O)CO [glycolic acid]
Human patients [2]
  local toxicity: low local toxicity
  systemic effect or comedomic action: no systemic effect or comedomic action
Guinea pigs [3]
  animals showing a minimal oedema and hyperaemia: 40%
  animals with no edema and no hyperaemia: 60%
  ideal dose: 0.01%
Human patients [4]
  adverse reactions in tissues (hyperemia, edema or discreet ecchymosis): no adverse reactions
Guinea pigs [5]; 0.1 ml at 0.1%, 3rd day
  tissue finding: tissue necrosis
Guinea pigs [5]; 0.1 ml at 0.1%, 7th day
  tissue finding: ulcer
Guinea pigs [5]; 0.1 ml at 0.2%, 3rd day
  tissue finding: moderate hyperaemia and edema
Guinea pigs [5]; 0.1 ml at 0.2%, 7th day
  tissue finding: normal tissue (regular)
Guinea pigs [5]; 0.1 ml at 0.3%, 3rd day
  tissue finding: evident hyperaemia edema
Guinea pigs [5]; 0.1 ml at 0.3%, 7th day
  tissue finding: epydermolyse and edema
Skin [6]
  increase in skin moisture: 300%
Skin [7]
  re-hydrating effect of the skin: remarkable re-hydrating effect
